Test results published in US10473647B1, “Peptides for use in treatment and diagnosis of type 1 diabetes” (ImmusanT, Inc., priority 2014, dated 2019).

What was measured:
Format in all cases: cell-based, human
[1] = tested on: whole blood from subjects with T1D and Celiac disease; experiment: Whole blood cytokine release assay, IFN-γ (MAGPIX), Example 1; settings: individual 17mer 20 μg/mL, blood 6 days after commencing oral gluten challenge; for subjects with elevated whole blood IFN-γ release: four subjects
[2] = tested on: whole blood from subjects with T1D and Celiac disease; experiment: Whole blood cytokine release assay, IL-2 (MAGPIX), Example 1; settings: individual 17mer 20 μg/mL, blood 6 days after commencing oral gluten challenge; for subjects with elevated whole blood IL-2 release: four subjects
[3] = tested on: whole blood from subjects with T1D and Celiac disease; experiment: Whole blood cytokine release assay, IP-10 (MAGPIX), Example 1; settings: individual 17mer 20 μg/mL, blood 6 days after commencing oral gluten challenge; for subjects with elevated whole blood IP-10 release (2-fold greater than medium alone): four subjects

Sequence | subjects with elevated whole blood IP-10 release (2-fold greater than medium alone) [3] | IFN-g fold-change ([1]; Subject 1) | IFN-g fold-change (preproinsulin peptides) ([1]; Subject 1) [fold] | IFN-g fold-change ([1]; Subject 2) | IFN-g fold-change (preproinsulin peptides) ([1]; Subject 2) [fold] | IFN-g fold-change ([1]; Subject 6) | IFN-g fold-change (preproinsulin peptides) ([1]; Subject 6) [fold] | IFN-g fold-change ([1]; Subject 7) | IFN-g fold-change (preproinsulin peptides) ([1]; Subject 7) [fold] | IL-2 fold-change ([2]; Subject 1) | IL-2 fold-change (preproinsulin peptides) ([2]; Subject 1) [fold] | IL-2 fold-change ([2]; Subject 2) | IL-2 fold-change (preproinsulin peptides) ([2]; Subject 2) [fold] | IL-2 fold-change ([2]; Subject 6) | IL-2 fold-change (preproinsulin peptides) ([2]; Subject 6) [fold] | IL-2 fold-change ([2]; Subject 7) | IL-2 fold-change (preproinsulin peptides) ([2]; Subject 7) [fold] | IP-10 fold-change ([3]; Subject 1) | IP-10 fold-change (preproinsulin peptides) ([3]; Subject 1) [fold] | IP-10 fold-change ([3]; Subject 2) | other results
GRTGTYILIDMVLNRMA [SEQ ID NO: 12] | consistently stimulated | – | – | – | – | – | – | – | – | – | – | – | – | – | – | – | – | – | – | – | subjects with elevated whole blood IFN-γ release [1]: in two subjects; subjects with elevated whole blood IL-2 release [2]: consistently stimulated
MALWMRLLPLLALLALW [SEQ ID NO: 54] | stimulated IP-10 release in the strongest responder | 1.02 | 1.02 | 1.01 | 1.01 | 0.88 | 0.88 | 0.67 | 0.67 | 1.00 | 1.00 | 1.00 | 1.00 | 1.00 | 1.00 | 0.21 | 0.21 | 1.04 | 1.04 | 1.05 | IP-10 fold-change (preproinsulin peptides) ([3]; Subject 2): 1.05 fold; IP-10 fold-change ([3]; Subject 6): 2.20; IP-10 fold-change (preproinsulin peptides) ([3]; Subject 6): 2.20 fold; IP-10 fold-change ([3]; Subject 7): 0.73; IP-10 fold-change (preproinsulin peptides) ([3]; Subject 7): 0.73 fold
MRLLPLLALLALWGPDP [SEQ ID NO: 47] | recognized more weakly by three subjects | 1.02 | 1.02 | 0.85 | 0.85 | 0.91 | 0.91 | 0.53 | 0.53 | 1.00 | 1.00 | 1.00 | 1.00 | 1.00 | 1.00 | 0.36 | 0.36 | 2.07 | 2.07 | 1.37 | IP-10 fold-change (preproinsulin peptides) ([3]; Subject 2): 1.37 fold; IP-10 fold-change ([3]; Subject 6): 7.26; IP-10 fold-change (preproinsulin peptides) ([3]; Subject 6): 7.26 fold; IP-10 fold-change ([3]; Subject 7): 2.18; IP-10 fold-change (preproinsulin peptides) ([3]; Subject 7): 2.18 fold
NQHLCGSHLVEALYLVC [SEQ ID NO: 51] | pronounced in one subject | 0.91 | 0.91 | 0.82 | 0.82 | 1.66 | 1.66 | 0.53 | 0.53 | 1.00 | 1.00 | 1.00 | 1.00 | 1.00 | 1.00 | 0.21 | 0.21 | 0.95 | 0.95 | 1.45 | IP-10 fold-change (preproinsulin peptides) ([3]; Subject 2): 1.45 fold; IP-10 fold-change ([3]; Subject 6): 75.09; IP-10 fold-change (preproinsulin peptides) ([3]; Subject 6): 75.09 fold; IP-10 fold-change ([3]; Subject 7): 1.57; IP-10 fold-change (preproinsulin peptides) ([3]; Subject 7): 1.57 fold
NVGADIKKTMEGPVEGR [SEQ ID NO: 69] | Only Subject 7 responded | – | – | – | – | – | – | – | – | – | – | – | – | – | – | – | – | – | – | – | subjects with elevated whole blood IFN-γ release [1]: Only Subject 7 responded; subjects with elevated whole blood IL-2 release [2]: Only Subject 7 responded
PKAARPPVTPVLLEKKS [SEQ ID NO: 13] | all four subjects | – | – | – | – | – | – | – | – | – | – | – | – | – | – | – | – | – | – | – | subjects with elevated whole blood IFN-γ release [1]: not IL-2 or IFN-γ release; subjects with elevated whole blood IL-2 release [2]: not IL-2
PKTRREAEVGQVELGGG [SEQ ID NO: 52] | – | 1.07 | 1.07 | 1.08 | 1.08 | 0.81 | 0.81 | 0.52 | 0.52 | 1.00 | 1.00 | 1.00 | 1.00 | 1.00 | 1.00 | 0.21 | 0.21 | 1.08 | 1.08 | 1.56 | IP-10 fold-change (preproinsulin peptides) ([3]; Subject 2): 1.56 fold; IP-10 fold-change ([3]; Subject 6): 3.69; IP-10 fold-change (preproinsulin peptides) ([3]; Subject 6): 3.69 fold; IP-10 fold-change ([3]; Subject 7): 0.97; IP-10 fold-change (preproinsulin peptides) ([3]; Subject 7): 0.97 fold
PLALEGSLQKRGIVEQC [SEQ ID NO: 58] | – | 0.43 | 0.43 | 0.82 | 0.82 | 0.86 | 0.86 | 1.53 | 1.53 | 1.00 | 1.00 | 1.00 | 1.00 | 1.00 | 1.00 | 3.50 | 3.50 | 1.23 | 1.23 | 1.02 | IP-10 fold-change (preproinsulin peptides) ([3]; Subject 2): 1.02 fold; IP-10 fold-change ([3]; Subject 6): 0.87; IP-10 fold-change (preproinsulin peptides) ([3]; Subject 6): 0.87 fold; IP-10 fold-change ([3]; Subject 7): 1.09; IP-10 fold-change (preproinsulin peptides) ([3]; Subject 7): 1.09 fold
PLLALLALWGPDPAAAF [SEQ ID NO: 45] | all four subjects | 0.78 | 0.78 | 1.53 | 1.53 | 1.11 | 1.11 | 1.55 | 1.55 | 1.00 | 1.00 | 1.00 | 1.00 | 1.64 | 1.64 | 3.77 | 3.77 | 3.27 | 3.27 | 6.60 | IP-10 fold-change (preproinsulin peptides) ([3]; Subject 2): 6.60 fold; IP-10 fold-change ([3]; Subject 6): 31.61; IP-10 fold-change (preproinsulin peptides) ([3]; Subject 6): 31.61 fold; IP-10 fold-change ([3]; Subject 7): 2.73; IP-10 fold-change (preproinsulin peptides) ([3]; Subject 7): 2.73 fold
